Residues, ends and D or L forms follow the SMILES beside them. *: point of attachment. Cbz = O=C(OCc1ccccc1)*; CH2F = FC*
Assays:
DNA laddering = assay: Hepatic DNA laddering (agarose gel); type: in vivo, mouse; set-up: key: (+) indicates positive detection of DNA laddering or processing of caspase-3 by western blot (WB)
Procedure: (§1) Caspase-3 western blotting was carried out as described previously (30) on mouse liver cytosol fractions prepared from snap frozen livers. DNA was isolated from snap frozen livers using the Sigma-Aldrich GeneElute kit according to the manufacturer's instructions. DNA laddering was visualised through ethidium bromide staining following separation on a 1% agarose gel. […] The number of cleaved caspase-3 positive cells (cytoplasmic staining) was evaluated semi-quantitatively (− no positive cells; + scattered positive cells; ++ moderate number of positive cells, +++ numerous positive cells).

HMGB-1 = tested on: HMGB-1
Source text: (A) Schematic overview of the location of cysteine 106 within the cytokine domain of murine HMGB-1 which is characterized by MS/MS. […] MS/MS and western figures are representative of 6 mice per group.

ALT = assay: Serum alanine transaminase (ALT) activity; type: in vivo, mouse; details: for Serum Biomarker elevation ALT activity: APAP 530 mg/kg i.p., CD-1 mice
HMGB1 [1] = assay: Serum hypo- and hyper-acetylated HMGB1 by LC-MS/MS (relative values); type: in vivo, mouse; details: APAP 530 mg/kg, mice, post dose, 0-24 hr time course
Procedure: Overnight immunoprecipitations (IP) of serum K18 and HMGB1 (5 μg antibody and protein G separation) were subjected to SDS-PAGE. Protein bands were excised from Coomassie Blue-stained gels, destained by incubation with 50% acetonitrile/50 mM ammonium bicarbonate followed by vacuum drying. Gel pieces were rehydrated in 50 mM ammonium bicarbonate containing 40 ng/μL modified trypsin (K18) or GluC (HMGB1) and incubated for 16 hr at 37° C. Peptides were extracted by incubation with 2 changes of 60% acetonitrile/1% trifluoroacetic acid and the resulting supernatants were again dried. Extracts were desalted using C18 ZipTips according to the manufacturer's instructions and reconstituted in 5% acetonitrile/0.1% trifluoroacetic acid. For LC-MS/MS analysis, samples were delivered into a QSTAR Pulsar i hybrid mass spectrometer (Applied Biosystems) by automated in-line liquid chromatography (integrated LC-Packings System, 5 mm C18 nano-precolumn and 75 μm×15 cm C18 PepMap column (Dionex, Calif., USA) via a nano-electrospray source head and 10 μm inner diameter PicoTip (New Objective, USA). A gradient from 5% acetonitrile/0.05% trifluoroacetic acid (v/v) to 48% acetonitrile/0.05% trifluoroacetic acid (v/v) in 60 min was applied at a flow rate of […], MS and MS/MS spectra were acquired automatically in positive ion mode using information-dependent acquisition (Analyst, Applied Biosystems). Database searching was performed using Protein Pilot 2 (Applied Biosystems) with the latest version of the SwissProt database, with the confidence level set at 80%, and with biological modifications allowed. Quantification of murine serum full length K18 and caspase dependent K18 fragments was accomplished through construction of standard curves generated with synthetic peptide standards spiked into and could be recovered from control serum and compared to immunoassay (17). The full length K18 standard ([…]) was designed to span the caspase 3, 7, 9 cleavage site, whereas the abbreviated peptide ([…]) is only derived from K18 fragments with the caspase cleavage site cut (limit of detection; 300 fmol/ml. coefficient of variation; <10%). HMGB1 and its hyper-acetylated derivative were quantified by spectral counting of the peptide peak, since no synthetic standards were available, and are consequently presented only as relative values and compared to total levels determined by ELISA according to the manufacturer's instructions (limit of detection; 0.1 ng/ml. coefficient of variation; <10%).

[2] = tested on: Total hepatic glutathione (GSH+GSSG); assay: Determination of hepatic glutathione levels; type: in vivo, mouse; set-up: key to GSH depletion: (+) indicates significant; (−) non-significant hepatic GSH depletion compared to control animals; details: for GSH depletion: hepatic, APAP 530 mg/kg i.p., CD-1 mice
Procedure: Total hepatic glutathione (GSH+GSSG) levels were determined as described previously (29).

HMGB1 [3] = assay: Total serum HMGB1 by ELISA; type: in vivo, mouse; details: for Serum Biomarker elevation Total HMGB1: APAP 530 mg/kg i.p., CD-1 mice
caspase-3 = assay: Caspase-3 western blotting of liver cytosol; type: in vivo, mouse; set-up: key to Caspase 3 processing (WB): (+) indicates positive detection of DNA laddering or processing of caspase-3 by western blot (WB); details: for Caspase 3 processing (WB): hepatic, APAP 530 mg/kg i.p., CD-1 mice
Procedure: as §1

male CD-1 mice = assay: Histological assessment of hepatotoxicity (H&E liver sections, hepatocyte loss score); details: APAP co-dosed with Z-VAD.fmk, 5 hr
apoptotic markers = assay: Effect of Z-VAD.fmk on APAP-induced apoptotic markers (DNA laddering, pro-caspase 3 processing, serum caspase cleaved K18); type: in vivo, mouse; details: Z-VAD.fmk 10 mg/kg i.v. 15 min pre-APAP (530 mg/kg; 5 hr), compared with APAP alone
Procedure: as §1
Overnight immunoprecipitations (IP) of serum K18 and HMGB1 (5 μg antibody and protein G separation) were subjected to SDS-PAGE. […] Quantification of murine serum full length K18 and caspase dependent K18 fragments was accomplished through construction of standard curves generated with synthetic peptide standards spiked into and could be recovered from control serum and compared to immunoassay (17). […] HMGB1 and its hyper-acetylated derivative were quantified by spectral counting of the peptide peak, since no synthetic standards were available, and are consequently presented only as relative values and compared to total levels determined by ELISA according to the manufacturer's instructions (limit of detection; 0.1 ng/ml. coefficient of variation; <10%).

[4] = APAP 530 mg/kg, mice, 10 hr post treatment
[5] = APAP 530 mg/kg, mice, 3-24 hr time course

`CC(=O)Nc1ccc(O)cc1` [APAP, Acetaminophen] was tested, and the “DNA laddering” value (DNA laddering; [4]) was “no evidence”, the DNA laddering (DNA laddering; hepatic, APAP 530 mg/kg i.p., CD-1 mice, 3 hr) was “+” and the DNA laddering (DNA laddering; hepatic, APAP 530 mg/kg i.p., CD-1 mice, 5 hr) was “+”. The “serum molecular form of HMGB-1 present” value (HMGB-1; fasted mice dosed with APAP (530 mg/kg; 5 h)) was “the only serum molecular form of HMGB-1 present was the reduced form”, the “predominant form of HMGB-1 in sera” value (HMGB-1; fed mice dosed with APAP (530 mg/kg; 5 h)) was “oxidized, immune-tolerant form” and the toxicity (HMGB-1; mouse, in vivo) was “displaying toxicity”. For the same molecule, the “Serum Biomarker elevation ALT activity” value (ALT; 3 hr) was “+”, the “Serum Biomarker elevation ALT activity” value (ALT; 5 hr) was “+” and the “Serum Biomarker elevation ALT activity” value (ALT; 10 hr) was “+”. The “Serum Biomarker elevation ALT activity” value (ALT; 15 hr) was “+”, the “Serum Biomarker elevation ALT activity” value (ALT; 20 hr) was “+” and the “Serum Biomarker elevation ALT activity” value (ALT; 24 hr) was “+”. The “increased serum ALT activity, time course” value (ALT; [5]) was “observed over the entire time course”, the “time of first significant elevation of necrosis-associated (hypo-acetylated) serum HMGB1” value (HMGB1 [1]) was 3 h and the “time of first significant increase of immune cell derived (hyper-acetylated) serum HMGB1” value (HMGB1 [1]) was 5 h. The “time of peak of immune cell derived (hyper-acetylated) serum HMGB1” value (HMGB1 [1]) was 15 h, the “time of return to control levels of immune cell derived (hyper-acetylated) serum HMGB1” value (HMGB1 [1]) was at most 24 h and the GSH depletion ([2]; 3 hr) was “+”. For the same molecule, the GSH depletion ([2]; 5 hr) was “+”, the GSH depletion ([2]; 10 hr) was “−” and the GSH depletion ([2]; 15 hr) was “−”. For the same molecule, the GSH depletion ([2]; 20 hr) was “−”, the GSH depletion ([2]; 24 hr) was “−” and the “Serum Biomarker elevation Total HMGB1” value (HMGB1 [3]; 3 hr) was “+”. For the same molecule, the “Serum Biomarker elevation Total HMGB1” value (HMGB1 [3]; 5 hr) was “+”, the “Serum Biomarker elevation Total HMGB1” value (HMGB1 [3]; 10 hr) was “+” and the “Serum Biomarker elevation Total HMGB1” value (HMGB1 [3]; 15 hr) was “+”. For the same molecule, the “Serum Biomarker elevation Total HMGB1” value (HMGB1 [3]; 20 hr) was “−”, the “Serum Biomarker elevation Total HMGB1” value (HMGB1 [3]; 24 hr) was “−” and the “last time point with serum HMGB1 elevation” value (HMGB1 [3]; [5]) was at most 15 h. For the same molecule, the “caspase 3 processing” value (caspase-3; [4]) was “no evidence”, the “Caspase 3 processing (WB)” value (caspase-3; 3 hr) was “+” and the “Caspase 3 processing (WB)” value (caspase-3; 5 hr) was “+”. For the same molecule, the “Caspase 3 processing (WB)” value (caspase-3; 10 hr) was “+”.

In the case of `COC(=O)C[C@H](NC(=O)[C@H](C)NC(=O)[C@@H](NC(=O)OCc1ccccc1)C(C)C)C(=O)CF` [Z-VAD.fmk] (Cbz-Val-Ala-Asp(OMe)-CH2F), the “molecular form of HMGB1 detected” value (HMGB-1; Z-VAD.fmk in APAP-treated, fed mice) is reported as “only the reduced molecular form”, the “serum ALT level compared with APAP alone” value (ALT; Z-VAD.fmk and APAP (530 mg/kg; 5 hr)) is reported as “increased” and the “apoptotic hepatocyte death by histology and immunohistology for cleaved caspase-3” value (male CD-1 mice) is reported as “no evidence”. The “Histological scoring of centrilobular hepatocyte loss” value (male CD-1 mice; score 0-5, higher than APAP alone (p<0.05)) was 2-3, the “effect on APAP-mediated GSH depletion” value ([2]; Z-VAD.fmk pre-treatment, APAP 530 mg/kg, 5 hr) was “no effect” and the “detection of apoptotic markers in APAP dosed mice” value (apoptotic markers) was “completely inhibited”.

Source: patent publication US8748109B2, “Method for the detection of organ or tissue injury” (priority 2009, dated 2014)
